Reference: article PMC10584170, “Machine learning-based phenotypic imaging to characterise the targetable biology of Plasmodium falciparum male gametocytes for the development of transmission-blocking antimalarials” (PLOS Pathogens, 2023)

Key:
[1] = tested on: P. falciparum male gametocytes; experiment: P. falciparum Dual Gamete Formation Assay (PfDGFA), male readout (exflagellation); format: cell-based, Plasmodium falciparum NF54; conditions: for % inhibition male (individual replicates) R1: replicate R1; for % inhibition male (individual replicates) R3: replicate R3; for % inhibition male (individual replicates) R4: replicate R4; for Average inhibition male (%): average of replicates; for Activity: hit = >50% inhibition in male or female readout in at least 3 replicates, 0 = no class assigned
In short: (§1)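 Male and female gamete formation were quantified by microscopy image analysis following 24 h incubation of mature NF54 gametocytes with compound and activation at 28°C with xanthurenic acid.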

[2] = tested on: P. falciparum female gametocytes; experiment: P. falciparum Dual Gamete Formation Assay (PfDGFA), female readout (Pfs25-positive female gametes); format: cell-based, Plasmodium falciparum NF54; conditions: for % inhibition female (individual replicates) R1: replicate R1; for % inhibition female (individual replicates) R3: replicate R3; for % inhibition female (individual replicates) R4: replicate R4; for Average inhibition female (%): average of replicates
In short: as §1

[3] = PfDGFA at 2µM, 24h preincubation with gametocytes prior to induction of gametogenesis
[4] = PfDGFA at 2µM, 24h preincubation
[5] = 2µM, 24h preincubation with gametocytes prior to induction of gametogenesis
[6] = 2µM, 24h preincubation, hits selected on >50% inhibition in the male readout across replicates
[7] = 2µM, 24h preincubation, hits selected on >50% inhibition in the female readout across replicates
[8] = PfDGFA at 2µM, 24h preincubation with gametocytes
[9] = number of replicates with >50% inhibition in the male readout, 2µM
[10] = number of replicates with >50% inhibition in the female readout, 2µM
[11] = 2µM, 24h preincubation, number of replicates with >50% inhibition in the male readout
[12] = 2µM, 24h preincubation, number of replicates with >50% inhibition in the female readout

Compound	Average inhibition male (%) [1, 5] [%]	% inhibition male (individual replicates) R1 [1, 5] [%]	% inhibition male (individual replicates) R3 [1, 5] [%]	% inhibition male (individual replicates) R4 [1, 5] [%]	HitlevelM [1, 6]	Activity [1, 4]	Average inhibition female (%) [2, 5] [%]	% inhibition female (individual replicates) R1 [2, 5] [%]	% inhibition female (individual replicates) R3 [2, 5] [%]	% inhibition female (individual replicates) R4 [2, 5] [%]	HitlevelF [2, 7]	also measured
Cc1nc2nc(N)nc(N)c2c(C)c1Cc1ccccc1Br.Cl [TCMDC-137242]	–	–	–	–	–	–	–	–	–	–	–	% inhibition male (individual replicates) R1 [1, 3]: 34.5%; % inhibition male (individual replicates) R3 [1, 3]: 1.0%; % inhibition male (individual replicates) R4 [1, 3]: -12.5%; Average inhibition male (%) [1, 4]: 16.6%; % inhibition female (individual replicates) R1 [2, 3]: 10.1%; % inhibition female (individual replicates) R3 [2, 3]: -11.3%; % inhibition female (individual replicates) R4 [2, 3]: 2.1%; Average inhibition female (%) [2, 4]: -2.4%
Cc1c(Cc2ccccc2Br)cnc2nc(N)nc(N)c12.Cl [TCMDC-137244]	–	–	–	–	–	–	–	–	–	–	–	% inhibition male (individual replicates) R1 [1, 3]: 13.7%; % inhibition male (individual replicates) R3 [1, 3]: 18.7%; % inhibition male (individual replicates) R4 [1, 3]: 3.9%; Average inhibition male (%) [1, 4]: 10.5%; % inhibition female (individual replicates) R1 [2, 3]: 1.3%; % inhibition female (individual replicates) R3 [2, 3]: -18.4%; % inhibition female (individual replicates) R4 [2, 3]: -3.4%; Average inhibition female (%) [2, 4]: -6.0%
CCC(CC)n1c(C)cc2c3c(N)nc(N)nc3ccc21 [TCMDC-137283]	25.7	19.3	21.9	21.2	0	0	4.2	-6.1	8.3	19.7	0	–
CCCc1cc(Cc2cnc(N)nc2N)cc(CCC)c1OCCCCC(=O)O [TCMDC-137293]	-0.757	18.6	1.6	-35.8	0	0	8.1	3.0	-4.5	42.6	0	–
CCN(CC)S(=O)(=O)n1ncc2c3c(N)nc(N)nc3ccc21.Cl [TCMDC-137302]	–	–	–	–	–	–	–	–	–	–	–	% inhibition male (individual replicates) R1 [1, 3]: 16.7%; % inhibition male (individual replicates) R3 [1, 3]: -8.5%; % inhibition male (individual replicates) R4 [1, 3]: -41.8%; Average inhibition male (%) [1, 4]: 0.1%; % inhibition female (individual replicates) R1 [2, 3]: 5.9%; % inhibition female (individual replicates) R3 [2, 3]: -12.1%; % inhibition female (individual replicates) R4 [2, 3]: -12.9%; Average inhibition female (%) [2, 4]: -8.3%
O=C1O[C@H](c2ccccc2)[C@H](c2ccccc2)N(C(=O)OCc2ccccc2)[C@H]1Cc1ccccc1C1CCCC1 [TCMDC-137303]	-2.7	16.1	–	-23.7	0	0	4.6	6.2	-0.36	6.0	0	–
CCc1cc2c3c(N)nc(N)nc3ccc2n1C(C)(C)C [TCMDC-137306]	–	–	–	–	–	–	–	–	–	–	–	% inhibition male (individual replicates) R1 [1, 3]: 25.5%; % inhibition male (individual replicates) R3 [1, 3]: 27.4%; % inhibition male (individual replicates) R4 [1, 3]: 15.6%; Average inhibition male (%) [1, 4]: 21.0%; % inhibition female (individual replicates) R1 [2, 3]: -1.8%; % inhibition female (individual replicates) R3 [2, 3]: -28.9%; % inhibition female (individual replicates) R4 [2, 3]: 1.8%; Average inhibition female (%) [2, 4]: -7.8%
CC(C)n1c(C(C)(C)C)cc2c3c(N)nc(N)nc3ccc21 [TCMDC-137311]	–	–	–	–	–	–	–	–	–	–	–	Average inhibition male (%) [1, 8]: 66.3%; % inhibition male (individual replicates) R1 [1, 8]: 58.8%; % inhibition male (individual replicates) R3 [1, 8]: 70.2%; % inhibition male (individual replicates) R4 [1, 8]: 54.6%; HitlevelM [1, 9]: 4; Average inhibition female (%) [2, 8]: -0.8%; % inhibition female (individual replicates) R1 [2, 8]: -8.1%; % inhibition female (individual replicates) R3 [2, 8]: 21.9%; % inhibition female (individual replicates) R4 [2, 8]: -9.1%; HitlevelF [2, 10]: 0
COc1ccc2c(c1CCNCCCCNCCc1c(OC)ccc3c1CCCC3)CCCC2.CS(=O)(=O)O [TCMDC-137324]	–	–	–	–	–	–	–	–	–	–	–	Average inhibition male (%) [1, 8]: 81.7%; % inhibition male (individual replicates) R1 [1, 8]: 91.2%; % inhibition male (individual replicates) R3 [1, 8]: 86.5%; % inhibition male (individual replicates) R4 [1, 8]: 98.0%; HitlevelM [1, 9]: 4; Average inhibition female (%) [2, 8]: 79.4%; % inhibition female (individual replicates) R1 [2, 8]: 79.9%; % inhibition female (individual replicates) R3 [2, 8]: 84.0%; % inhibition female (individual replicates) R4 [2, 8]: 85.5%; HitlevelF [2, 10]: 4
CC(C(=O)OCCOCn1cnc2c(=O)[nH]c(N)nc21)N(C)C(=O)OC(C)(C)C (stereo not drawn) [TCMDC-137343]	–	–	–	–	–	–	–	–	–	–	–	% inhibition male (individual replicates) R1 [1, 3]: 2.6%; % inhibition male (individual replicates) R4 [1, 3]: -43.6%; Average inhibition male (%) [1, 4]: -14.6%; % inhibition female (individual replicates) R1 [2, 3]: 1.2%; % inhibition female (individual replicates) R3 [2, 3]: -8.6%; % inhibition female (individual replicates) R4 [2, 3]: 4.1%; Average inhibition female (%) [2, 4]: -0.55%
Cl.c1ccc2c(Nc3ccc(Cc4ccc(Nc5c6ccccc6nc6ccccc56)cc4)cc3)c3ccccc3nc2c1 [TCMDC-137354]	52.9	49.4	55.5	71.3	–	–	87.8	83.3	91.0	96.5	–	HitlevelM [1, 11]: 2; HitlevelF [2, 12]: 4
Cl.c1ccc2c(Nc3ccc(OCCOCCOc4ccc(Nc5c6ccccc6nc6ccccc56)cc4)cc3)c3ccccc3nc2c1 [TCMDC-137355]	37.2	36.9	-1.4	40.2	–	–	29.1	27.7	5.6	8.9	–	HitlevelM [1, 11]: 1; HitlevelF [2, 12]: 1
COc1cc(Cc2cnc(N)nc2N)cc(OCCCC(=O)O)c1OC [TCMDC-137359]	4.4	4.7	7.0	5.5	0	0	3.8	8.3	-22.8	31.0	0	–
CCc1nc(N)nc(N)c1-c1cccc(Cl)c1 [TCMDC-137371]	-6.5	19.6	-24.6	-25.1	0	0	4.1	14.2	-6.6	5.2	0	–
CCCc1cc(OC)c(CC2c3cc(O)c(Cl)cc3C(c3ccccc3)CN2C)cc1OC.Cl (stereo not drawn) [TCMDC-137432]	3.7	2.4	-26.9	27.9	0	0	7.6	-2.1	40.4	-8.9	0	–
Cl.N=C(NCCCc1ccccc1)c1cccc(C(=N)NCCCc2ccccc2)n1 [TCMDC-137453]	15.3	11.4	-5.0	33.6	–	–	26.7	21.1	29.3	27.4	–	HitlevelM [1, 11]: 0; HitlevelF [2, 12]: 0
CC(CNC(=N)c1cccc(C(=N)NCC(C)Oc2cccc(C3CCCCC3)c2)n1)Oc1cccc(C2CCCCC2)c1.Cl (stereo not drawn) [TCMDC-137455]	–	–	–	–	–	–	–	–	–	–	–	Average inhibition male (%) [1, 8]: 81.3%; % inhibition male (individual replicates) R1 [1, 8]: 90.7%; % inhibition male (individual replicates) R3 [1, 8]: 87.0%; % inhibition male (individual replicates) R4 [1, 8]: 101.3%; HitlevelM [1, 9]: 3; Average inhibition female (%) [2, 8]: 40.6%; % inhibition female (individual replicates) R1 [2, 8]: 53.6%; % inhibition female (individual replicates) R3 [2, 8]: 30.8%; % inhibition female (individual replicates) R4 [2, 8]: 44.6%; HitlevelF [2, 10]: 1
N=C(NCC1CC1c1ccccc1)c1cccc(C(=N)NCC2CC2c2ccccc2)n1 (stereo not drawn) [TCMDC-137456]	–	–	–	–	–	–	–	–	–	–	–	Average inhibition male (%) [1, 8]: 66.3%; % inhibition male (individual replicates) R1 [1, 8]: 75.4%; % inhibition male (individual replicates) R3 [1, 8]: 23.0%; % inhibition male (individual replicates) R4 [1, 8]: 81.6%; HitlevelM [1, 9]: 3; Average inhibition female (%) [2, 8]: 33.5%; % inhibition female (individual replicates) R1 [2, 8]: 27.8%; % inhibition female (individual replicates) R3 [2, 8]: 24.0%; % inhibition female (individual replicates) R4 [2, 8]: 33.0%; HitlevelF [2, 10]: 0
